From PubChem BioAssay AID330 (DTP/NCI, 2004)
Several values for one entry are separate records, joined by “and”; a condition that tells them apart may be missing. Equal values may be shown once. Toxic doses and inconclusive results are not listed.

Test system: P388 leukemia ip, CD2F1 mice, survival T/C
Assay: NCI In Vivo Anticancer Drug Screen. Data for tumor model P388 Leukemia (intraperitoneal) in CD2F1 (CDF1) mice
Settings: endpoint: median survival time, higher = longer survival
Summary of the method: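 Mice carrying the transplanted tumor received test compound or vehicle. Survival was recorded in each group, and the value is the treated-group measurement divided by that of the vehicle-treated control group.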

[1] = dose: 60.0 mg/kg/injection, schedule: Q01DX005 (ip), vehicle: Klucel (hydroxypropylcellulose) (HPC)
[2] = dose: 120.0 mg/kg/injection, schedule: Q01DX005 (ip), vehicle: Klucel (hydroxypropylcellulose) (HPC)
[3] = dose: 240.0 mg/kg/injection, schedule: Q01DX005 (ip), vehicle: Klucel (hydroxypropylcellulose) (HPC)
[4] = dose: 100.0 mg/kg/injection, schedule: Q04DX003 (ip), vehicle: saline with Tween-80
[5] = dose: 6.25 mg/kg/injection, schedule: Q01DX005 (ip), vehicle: Klucel (hydroxypropylcellulose) (HPC)
[6] = dose: 12.5 mg/kg/injection, schedule: Q01DX005 (ip), vehicle: Klucel (hydroxypropylcellulose) (HPC)
[7] = dose: 50.0 mg/kg/injection, schedule: Q01DX009 (ip), vehicle: saline with Tween-80
[8] = dose: 100.0 mg/kg/injection, schedule: Q01DX009 (ip), vehicle: saline with Tween-80
[9] = dose: 200.0 mg/kg/injection, schedule: Q01DX009 (ip), vehicle: saline with Tween-80
[10] = dose: 12.5 mg/kg/injection, schedule: Q01DX009 (ip), vehicle: saline with Tween-80
[11] = dose: 25.0 mg/kg/injection, schedule: Q01DX009 (ip), vehicle: saline with Tween-80
[12] = dose: 60.0 mg/kg/injection, schedule: Q01DX005 (ip), vehicle: saline with Tween-80
[13] = dose: 120.0 mg/kg/injection, schedule: Q01DX005 (ip), vehicle: saline with Tween-80
[14] = dose: 240.0 mg/kg/injection, schedule: Q01DX005 (ip), vehicle: saline with Tween-80
[15] = dose: 100.0 mg/kg/injection, schedule: Q04DX002 (ip), vehicle: saline with Tween-80
[16] = dose: 50.0 mg/kg/injection, schedule: Q01DX005 (ip), vehicle: saline
[17] = dose: 100.0 mg/kg/injection, schedule: Q01DX005 (ip), vehicle: saline
[18] = dose: 200.0 mg/kg/injection, schedule: Q01DX005 (ip), vehicle: saline

O=C1NNC(=O)C1C(=O)Nc1ccccc1
T/C (dose: 0.93 mg/kg/injection, schedule: Q01DX005 (ip), vehicle: Klucel (hydroxypropylcellulose) (HPC)): 100 % of control
T/C (dose: 1.87 mg/kg/injection, schedule: Q01DX005 (ip), vehicle: Klucel (hydroxypropylcellulose) (HPC)): 103 % of control
T/C (dose: 3.75 mg/kg/injection, schedule: Q01DX005 (ip), vehicle: Klucel (hydroxypropylcellulose) (HPC)): 100 % of control
T/C (dose: 15.0 mg/kg/injection, schedule: Q01DX005 (ip), vehicle: Klucel (hydroxypropylcellulose) (HPC)): 113 % of control

CN(N=O)c1ccc(N=Nc2ccccc2)cc1
T/C [1]: 98 % of control
T/C [2]: 95 % of control
T/C [3]: 86 % of control

CN(C)c1ccc(N/C=C/C(=O)c2ccccc2O)cc1
T/C (dose: 100.0 mg/kg/injection, schedule: Q01DX001 (ip), vehicle: other): 103 % of control
T/C (dose: 200.0 mg/kg/injection, schedule: Q01DX001 (ip), vehicle: other): 100 % of control
T/C (dose: 400.0 mg/kg/injection, schedule: Q01DX001 (ip), vehicle: other): 96 % of control

Cc1cc2ncn(CC(=O)O)c2cc1C
T/C (dose: 50.0 mg/kg/injection, schedule: Q04DX003 (ip), vehicle: saline with Tween-80): 100 % of control
T/C [4]: 90 % of control

NC(=O)/C(N=Nc1ccccc1)=N\Nc1ccccc1
T/C [5]: 91 % of control
T/C [6]: 91 % of control
T/C (dose: 25.0 mg/kg/injection, schedule: Q01DX005 (ip), vehicle: Klucel (hydroxypropylcellulose) (HPC)): 87 % of control

OCCN1CN(c2ccccc2)C(=S)N(c2ccccc2)C1
T/C [7]: 97 % of control
T/C [8]: 100 % of control
T/C [9]: 93 % of control

Cc1cc(NCCCN(C)C)c2ccc3c(ccc4c(NCCCN(C)C)cc(C)nc43)c2n1
T/C [10]: 98 % of control
T/C [11]: 118 % of control

C=C(C)C(=O)N(C)C(C)C(=O)OC1CC(=O)N(C)c2cc(cc(OC)c2Cl)C(OC)C(C)=C/C=C/C(OC)C2(O)CC(OC(=O)N2)C(C)C2OC12C (configuration not stated)
T/C (dose: 8.0 micrograms/kg/injection, schedule: Q01DX009 (ip), vehicle: saline): 172 % of control

CCOC(=O)C(CC(=O)O)=C1c2ccccc2-c2ccccc21
T/C [12]: 104 % of control
T/C [13]: 113 % of control
T/C [14]: 107 % of control

COc1cc([C@@H]2c3cc4c(cc3[C@H](OC(C)=O)[C@H]3COC(=O)[C@@H]23)OCO4)cc(OC)c1OC
T/C [11]: 118 % of control
T/C (dose: 29.3 mg/kg/injection, schedule: Q04DX003 (ip), vehicle: saline with Tween-80): 88 % of control
T/C [7]: 150 % of control
T/C (dose: 66.0 mg/kg/injection, schedule: Q04DX003 (ip), vehicle: saline with Tween-80): 100 % of control
T/C [4]: 115 % of control

CC1=CC(=C2C(=O)c3ccccc3C2=O)C=C(C)N1CCNCCO
T/C [1]: 99 % of control
T/C [2]: 90 % of control
T/C [3]: 93 % of control

CCCn1c(C)nc2c(N)cc(C(F)(F)F)cc21
T/C [15]: 105 % of control
T/C (dose: 200.0 mg/kg/injection, schedule: Q04DX002 (ip), vehicle: saline with Tween-80): 100 % of control
T/C (dose: 400.0 mg/kg/injection, schedule: Q04DX002 (ip), vehicle: saline with Tween-80): 95 % of control

COc1ccc(/C=N/N2CN(C(CC(N)=O)C(=O)O)P(Nc3ncccn3)N=C2N)cc1OC (configuration not stated)
T/C [12]: 104 % of control
T/C [13]: 102 % of control
T/C [14]: 95 % of control

CC(C)CCNO
T/C (dose: 50.0 mg/kg/injection, schedule: Q01DX005 (ip), vehicle: saline with Tween-80): 96 % of control
T/C (dose: 100.0 mg/kg/injection, schedule: Q01DX005 (ip), vehicle: saline with Tween-80): 100 % of control
T/C (dose: 200.0 mg/kg/injection, schedule: Q01DX005 (ip), vehicle: saline with Tween-80): 93 % of control

O=C1CSC(c2ccccc2Cl)N1N1C(=O)CSC1c1ccccc1Cl (configuration not stated)
T/C [1]: 100 % of control
T/C [2]: 93 % of control
T/C [3]: 98 % of control

CC1=C(C#N)C(=O)OC1(C)C1CCCC(=O)C1 (configuration not stated)
T/C (dose: 7.5 mg/kg/injection, schedule: Q01DX005 (ip), vehicle: saline with Tween-80): 99 % of control
T/C (dose: 15.0 mg/kg/injection, schedule: Q01DX005 (ip), vehicle: saline with Tween-80): 100 % of control
T/C (dose: 30.0 mg/kg/injection, schedule: Q01DX005 (ip), vehicle: saline with Tween-80): 98 % of control
T/C [12]: 100 % of control and 107 % of control

O=c1[nH]cnc2nc(N3CCN(c4ccccc4)CC3)sc12
T/C [12]: 87 % of control
T/C [13]: 87 % of control
T/C [14]: 87 % of control

C/C(C#N)=C/c1ccccc1
T/C [7]: 104 % of control
T/C [8]: 118 % of control

CC(=O)Cc1nc2ccccc2s1
T/C (dose: 25.0 mg/kg/injection, schedule: Q04DX002 (ip), vehicle: saline with Tween-80): 104 % of control
T/C (dose: 50.0 mg/kg/injection, schedule: Q04DX002 (ip), vehicle: saline with Tween-80): 107 % of control
T/C [15]: 102 % of control

COc1cccc(C(O)c2ccncc2C)c1OC (configuration not stated)
T/C (dose: 12.5 mg/kg/injection, schedule: Q01DX009 (ip), vehicle: water): 100 % of control
T/C (dose: 25.0 mg/kg/injection, schedule: Q01DX009 (ip), vehicle: water): 99 % of control
T/C (dose: 50.0 mg/kg/injection, schedule: Q01DX009 (ip), vehicle: water): 100 % of control
T/C (dose: 100.0 mg/kg/injection, schedule: Q01DX009 (ip), vehicle: water): 99 % of control
T/C (dose: 200.0 mg/kg/injection, schedule: Q01DX009 (ip), vehicle: water): 99 % of control

CC(N)C(=O)NCC(=O)NCC(=O)O (configuration not stated)
T/C [16]: 100 % of control
T/C [17]: 106 % of control
T/C [18]: 99 % of control

COc1ccccc1CC(N)c1nn[nH]n1 (configuration not stated)
T/C [11]: 96 % of control
T/C [7]: 98 % of control and 99 % of control and 101 % of control
T/C [8]: 104 % of control and 89 % of control and 96 % of control
T/C [9]: 91 % of control and 97 % of control
T/C (dose: 400.0 mg/kg/injection, schedule: Q01DX009 (ip), vehicle: saline with Tween-80): 96 % of control

CCN=C(Nc1cccc(C2=NCCN2)c1)c1ccc(C(=NCC)Nc2cccc(C3=NCCN3)c2)cc1
T/C (dose: 1.56 mg/kg/injection, schedule: Q01DX005 (ip), vehicle: Klucel (hydroxypropylcellulose) (HPC)): 100 % of control
T/C (dose: 3.12 mg/kg/injection, schedule: Q01DX005 (ip), vehicle: Klucel (hydroxypropylcellulose) (HPC)): 99 % of control
T/C [5]: 109 % of control
T/C [6]: 109 % of control

O=S(=O)(O)c1ccc(OCCCCCCCCOc2ccc(S(=O)(=O)O)cc2)cc1
T/C [16]: 112 % of control
T/C [17]: 109 % of control
T/C [18]: 100 % of control

CCCCC(NC(C)(C)C)c1ccccc1 (configuration not stated)
T/C (dose: 100.0 mg/kg/injection, schedule: Q04DX003 (ip), vehicle: saline): 97 % of control
T/C (dose: 200.0 mg/kg/injection, schedule: Q04DX003 (ip), vehicle: saline): 101 % of control
T/C (dose: 400.0 mg/kg/injection, schedule: Q04DX003 (ip), vehicle: saline): 102 % of control

CC1(C)O[C@@H]2C[C@H]3[C@@H]4CCC5=CC(=O)C=C[C@]5(C)[C@@]4(F)[C@@H](O)C[C@]3(C)[C@]2(C(=O)CO)O1
T/C [10]: 109 % of control
T/C [11]: 109 % of control

OC(c1ccccc1)C1CCNCC1 (configuration not stated) (tested in a mixture with another compound)
T/C [12]: 105 % of control
T/C [13]: 96 % of control
T/C [14]: 99 % of control

O=C(O)CCC(=O)OCCNCCOC(=O)CCC(=O)O
T/C (dose: 50.0 mg/kg/injection, schedule: Q01DX009 (ip), vehicle: saline): 92 % of control
T/C (dose: 100.0 mg/kg/injection, schedule: Q01DX009 (ip), vehicle: saline): 96 % of control
T/C (dose: 200.0 mg/kg/injection, schedule: Q01DX009 (ip), vehicle: saline): 99 % of control

CSc1nc(Cl)c(Br)c(Sc2nc(N)nc3nc[nH]c23)n1
T/C [7]: 122 % of control
T/C [8]: 109 % of control
T/C [4]: 118 % of control
T/C (dose: 200.0 mg/kg/injection, schedule: Q04DX003 (ip), vehicle: saline with Tween-80): 150 % of control

N#Cc1ccc(-c2nn[nH]n2)cc1
T/C (dose: 50.0 mg/kg/injection, schedule: Q01DX005 (ip), vehicle: Klucel (hydroxypropylcellulose) (HPC)): 102 % of control
T/C (dose: 100.0 mg/kg/injection, schedule: Q01DX005 (ip), vehicle: Klucel (hydroxypropylcellulose) (HPC)): 95 % of control
T/C (dose: 200.0 mg/kg/injection, schedule: Q01DX005 (ip), vehicle: Klucel (hydroxypropylcellulose) (HPC)): 96 % of control

O=C(O)CCSSCCCS(=O)O
T/C [16]: 109 % of control
T/C [17]: 114 % of control
T/C [18]: 124 % of control
